Data as given in patent US7348425B2, “Inhibitors of HCV replication” (Bristol-Myers Squibb Company, priority 2004, dated 2008).

How the values were obtained:
[1] = target: T1, HCV NS5B RdRp genotype 1b (Hepatitis C virus genotype 1b, UniProt Q9WMX2); assay: Modified HCV NS5B RdRp enzyme assay (with preincubation); type: biochemical; details: modified method (with preincubation)
T1 construct: The protein was expressed with an 18 amino acid C-terminal truncation to enhance the solubility; made in house; host or cells: E. coli BL21 (DE3), pET21a
T1 sequence (Q9WMX2 2420-2992): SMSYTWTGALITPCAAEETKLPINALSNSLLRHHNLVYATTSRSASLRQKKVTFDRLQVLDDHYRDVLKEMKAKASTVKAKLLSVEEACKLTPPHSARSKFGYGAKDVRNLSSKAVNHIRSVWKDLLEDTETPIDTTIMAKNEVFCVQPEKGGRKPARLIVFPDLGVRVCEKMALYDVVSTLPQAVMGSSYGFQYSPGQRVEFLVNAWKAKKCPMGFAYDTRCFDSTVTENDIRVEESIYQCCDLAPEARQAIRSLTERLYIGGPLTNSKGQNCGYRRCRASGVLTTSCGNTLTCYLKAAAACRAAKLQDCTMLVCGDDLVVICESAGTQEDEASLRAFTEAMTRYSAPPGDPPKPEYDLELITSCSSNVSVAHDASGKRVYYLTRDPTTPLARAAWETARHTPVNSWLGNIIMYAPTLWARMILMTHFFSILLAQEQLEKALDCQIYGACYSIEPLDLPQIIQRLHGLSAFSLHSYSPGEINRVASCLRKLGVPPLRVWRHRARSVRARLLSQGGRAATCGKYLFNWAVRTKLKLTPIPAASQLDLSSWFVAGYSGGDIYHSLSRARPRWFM
Procedure, shortened: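 C-terminally truncated (Δ18) genotype 1b NS5B from E. coli was preincubated (14 nM) with compound, then reaction started with polyA template (0.2 nM), ³H-UTP (0.29 μM) and dT12 primer (20 nM) precaptured on SPA beads. Reaction ran 4 h at 30 °C in pH 7.5 Hepes buffer with 2% DMSO. IC50 came from seven concentrations.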

[2] = system: HCV replicon; assay: HCV replicon FRET assay; type: cell-based; details: Hepatitis C virus; FRET assay; read-out: EC50
Procedure, shortened: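 Replicon cells (± Renilla luciferase reporter) incubated with titrated compound at 37 °C; NS3 protease activity read by FRET peptide cleavage (20 uM EDANS/DABCYL substrate, 340/490 nm kinetic) or luciferase.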

Structure (SMILES)	IC50 [1]	EC50 [2]
O=C(O)/C=C/c1ccc(NC(=O)C2(NC(=O)c3ccc4c(C5CCCCC5)c5n(c4c3)CC(=O)Nc3ccccc3-5)CCCC2)cc1	20 to 1000 nM	10 to 1000 nM
COC(=O)c1ccc2c(C3CCCCC3)c3n(c2c1)CC(O)Cc1ccccc1-3 (stereo not drawn)	> 1000 nM	10 to 1000 nM
CN(C)S(=O)(=O)NC(=O)c1ccc2c(C3CCCCC3)c3n(c2c1)CC=Cc1ncccc1-3	20 to 1000 nM	1000 to 10000 nM
CN(C)S(=O)(=O)NC(=O)c1ccc2c(C3CCCCC3)c3n(c2c1)C[C@@H](O)[C@@H](O)c1ncccc1-3	20 to 1000 nM	> 10000 nM
O=C(O)c1ccc2c(C3CCCCC3)c3n(c2c1)CC(O)Cc1ccccc1-3 (stereo not drawn)	20 to 1000 nM	1000 to 10000 nM
COC(=O)/C=C/c1ccc(NC(=O)C2(NC(=O)c3ccc4c(C5CCCCC5)c5n(c4c3)CC(=O)Cc3ccccc3-5)CCCC2)cc1	> 1000 nM	10 to 1000 nM
COC(=O)c1ccc2c(C3CCCCC3)c3n(c2c1)C/C(=N/O)Cc1ccccc1-3	> 1000 nM	10 to 1000 nM
O=C(O)c1ccc2c(C3CCCCC3)c3n(c2c1)C/C(=N/O)Cc1ccccc1-3	20 to 1000 nM	1000 to 10000 nM
Cn1cnc(S(=O)(=O)NC(=O)c2ccc3c(C4CCCCC4)c4n(c3c2)CC=Cc2ncccc2-4)c1	20 to 1000 nM	> 10000 nM
Cn1cnc(S(=O)(=O)NC(=O)c2ccc3c(C4CCCCC4)c4n(c3c2)C[C@@H](O)[C@@H](O)c2ncccc2-4)c1	20 to 1000 nM	> 10000 nM
CS(=O)(=O)NC(=O)c1ccc2c(C3CCCCC3)c3n(c2c1)CC=Cc1ncccc1-3	20 to 1000 nM	> 10000 nM
O=C(NS(=O)(=O)c1ccccc1)c1ccc2c(C3CCCCC3)c3n(c2c1)CC=Cc1ncccc1-3	20 to 1000 nM	> 10000 nM
O=C(NS(=O)(=O)Cc1ccccc1)c1ccc2c(C3CCCCC3)c3n(c2c1)CC=Cc1ncccc1-3	20 to 1000 nM	1000 to 10000 nM
COC(=O)c1ccc2c(C3CCCCC3)c3n(c2c1)CC(CO)Cc1ccccc1-3 (stereo not drawn)	> 1000 nM	10 to 1000 nM
O=C(O)c1ccc2c(C3CCCCC3)c3n(c2c1)CC(CO)Cc1ccccc1-3 (stereo not drawn)	20 to 1000 nM	1000 to 10000 nM
O=C(NS(=O)(=O)Cc1ccccc1)c1ccc2c(C3CCCCC3)c3n(c2c1)CCCc1ncccc1-3	20 to 1000 nM	1000 to 10000 nM
O=C(NS(=O)(=O)c1ccccc1)c1ccc2c(C3CCCCC3)c3n(c2c1)C[C@@H](O)[C@@H](O)c1ncccc1-3	20 to 1000 nM	1000 to 10000 nM
CN(C)S(=O)(=O)NC(=O)c1ccc2c(C3CCCCC3)c3n(c2c1)CC(O)Cc1ccccc1-3 (stereo not drawn)	20 to 1000 nM	10 to 1000 nM
CS(=O)(=O)NC(=O)c1ccc2c(C3CCCCC3)c3n(c2c1)CCCc1ncccc1-3	20 to 1000 nM	1000 to 10000 nM
NC(=O)c1ccc2c(C3CCCCC3)c3n(c2c1)CCCc1ncccc1-3	20 to 1000 nM	1000 to 10000 nM
O=C(NS(=O)(=O)C1CC1)c1ccc2c(C3CCCCC3)c3n(c2c1)CC=Cc1ncccc1-3	20 to 1000 nM	1000 to 10000 nM
CN(C)S(=O)(=O)NC(=O)c1ccc2c(C3CCCCC3)c3n(c2c1)CC(C(=O)N1CCN(c2ccncc2)CC1)=Cc1ccccc1-3	20 to 1000 nM	10 to 1000 nM
COC(=O)c1ccc2c(C3CCCCC3)c3n(c2c1)CC(C#N)=Cc1ccccc1-3	> 1000 nM	1000 to 10000 nM
COC(=O)c1ccc2c(C3CCCCC3)c3n(c2c1)C=C(C#N)Cc1ccccc1-3	> 1000 nM	10 to 1000 nM
N#CC1=Cn2c(c(C3CCCCC3)c3ccc(C(=O)O)cc32)-c2ccccc2C1	20 to 1000 nM	1000 to 10000 nM
COC(=O)c1ccc2c(C3CCCCC3)c3n(c2c1)CC(C(=O)O)=Cc1ccccc1-3	20 to 1000 nM	10 to 1000 nM

Structure (SMILES)	IC50 [1]	EC50 [2]
CN(C)C(=O)c1ccc2c(C3CCCCC3)c3n(c2c1)CC(C(=O)N1CCOCC1)=Cc1ccccc1-3	20 to 1000 nM	1000 to 10000 nM
COC(=O)c1ccc2c(C3CCCCC3)c3n(c2c1)CCCc1cc(OCc2cc([N+](=O)[O-])ccc2F)ccc1-3	> 1000 nM	1000 to 10000 nM
COC(=O)/C=C/c1ccc(NC(=O)C2(NC(=O)c3ccc4c(C5CCCCC5)c5n(c4c3)CCCc3ncccc3-5)CCCC2)cc1	20 to 1000 nM	10 to 1000 nM
CN(C)S(=O)(=O)NC(=O)c1ccc2c(C3CCCCC3)c3n(c2c1)C[C@@H](C(=O)N1CCC(N2CCCC2)CC1)Cc1ccccc1-3	20 to 1000 nM	10 to 1000 nM
CN(C)S(=O)(=O)NC(=O)c1ccc2c(C3CCCCC3)c3n(c2c1)C[C@H](C(=O)N1CCC(N2CCCC2)CC1)Cc1ccccc1-3	20 to 1000 nM	10 to 1000 nM
O=C(C1=Cc2ccccc2-c2c(C3CCCCC3)c3ccc(C(=O)N4CCOCC4)cc3n2C1)N1CCOCC1	> 1000 nM	1000 to 10000 nM
N#Cc1ccc2c(C3CCCCC3)c3n(c2c1)CCCc1ncccc1-3	> 1000 nM	10 to 1000 nM
c1cnc2c(c1)-c1c(C3CCCCC3)c3ccc(-c4nnn[nH]4)cc3n1CCC2	20 to 1000 nM	1000 to 10000 nM
O=C(NS(=O)(=O)C1CC1)c1ccc2c(C3CCCCC3)c3n(c2c1)CCCc1ncccc1-3	20 to 1000 nM	10 to 1000 nM
O=C(NS(=O)(=O)c1ccccc1)c1ccc2c(C3CCCCC3)c3n(c2c1)CCCc1ncccc1-3	20 to 1000 nM	1000 to 10000 nM
CN(C)S(=O)(=O)NC(=O)c1ccc2c(C3CCCCC3)c3n(c2c1)CCCc1ncccc1-3	20 to 1000 nM	10 to 1000 nM
Cn1cnc(S(=O)(=O)NC(=O)c2ccc3c(C4CCCCC4)c4n(c3c2)CCCc2ncccc2-4)c1	20 to 1000 nM	1000 to 10000 nM
O=C(c1ccc2c(C3CCCCC3)c3n(c2c1)CC(C(=O)N1CCOCC1)Cc1ccccc1-3)N1CCOCC1 (stereo not drawn)	> 1000 nM	10 to 1000 nM
O=C(O)c1ccc2c(C3CCCCC3)c3c4ccccc4[nH]c(=O)n3c2c1	> 1000 nM	10 to 1000 nM
CN(C)S(=O)(=O)NC(=O)c1ccc2c(C3CCCCC3)c3n(c2c1)C[C@H](C(=O)N1CCOCC1)Cc1ccccc1-3	20 to 1000 nM	10 to 1000 nM
COC(=O)c1ccc2c(C3CCCCC3)c3n(c2c1)CC(C(=O)N(C)C)=Cc1ccccc1-3	> 1000 nM	1000 to 10000 nM
CN(C)C(=O)C1=Cc2ccccc2-c2c(C3CCCCC3)c3ccc(C(=O)O)cc3n2C1	20 to 1000 nM	10 to 1000 nM
CN(C)C(=O)C1=Cc2ccccc2-c2c(C3CCCCC3)c3ccc(C(=O)NS(=O)(=O)N(C)C)cc3n2C1	20 to 1000 nM	10 to 1000 nM
COC(=O)c1ccc2c(C3CCCCC3)c3n(c2c1)CC(C(=O)O)=Cc1cc(OCc2ccccc2)ccc1-3	> 1000 nM	1000 to 10000 nM
COC(=O)c1ccc2c(C3CCCCC3)c3n(c2c1)CC(C(=O)N1C[C@@H](C)O[C@@H](C)C1)=Cc1ccccc1-3	> 1000 nM	1000 to 10000 nM
C[C@@H]1CN(C(=O)C2=Cc3ccccc3-c3c(C4CCCCC4)c4ccc(C(=O)O)cc4n3C2)C[C@H](C)O1	20 to 1000 nM	10 to 1000 nM
C[C@@H]1CN(C(=O)C2=Cc3ccccc3-c3c(C4CCCCC4)c4ccc(C(=O)NS(=O)(=O)N(C)C)cc4n3C2)C[C@H](C)O1	20 to 1000 nM	10 to 1000 nM
COC(=O)C1=Cc2ccncc2-c2c(C3CCCCC3)c3ccc(C(=O)OC)cc3n2C1	> 1000 nM	1000 to 10000 nM
COC(=O)C1=Cc2cccnc2-c2c(C3CCCCC3)c3ccc(C(=O)OC)cc3n2C1	> 1000 nM	1000 to 10000 nM
COC(=O)c1ccc2c(C3CCCCC3)c3n(c2c1)CC(C(=O)N1CCOCC1)=Cc1cccnc1-3	> 1000 nM	1000 to 10000 nM
